Holding throughout (format): physicochemical
Series [1] can be described thus: Method A: solubility of active ingredient in solvent by NMR spectroscopy of a saturated solution. The following applies: for Active Ingredient Solubility: Dicamba Acid: dicamba acid dissolved in the named solvent; for Active Ingredient Solubility: Nitrapyrin: nitrapyrin dissolved in the named solvent; for Active Ingredient Solubility: 2,4-D Acid: 2,4-dichlorophenoxyacetic acid dissolved in the named solvent; for Active Ingredient Solubility: MCPA: 2-methyl-4-chlorophenoxyacetic acid dissolved in the named solvent; for Active Ingredient Solubility: NBPT: N-(n-butyl)thiophosphoric triamide dissolved in the named solvent; for Active Ingredient Solubility: Bifenthrin: bifenthrin dissolved in the named solvent; for Active Ingredient Solubility: Tebuconazole: tebuconazole dissolved in the named solvent. The method, then:
(§1) The solubilities of active ingredients in the Ether Ketone Solvents and Comparative Solvents are determined on a saturated solution of a given active ingredient in a given solvent using NMR spectroscopy (Method A, as described below), or by visual evaluation of a concentration ladder of a given active ingredient in a given solvent (Method B, as described below).
Method A: Solubility Determination by NMR Spectroscopy
A saturated solution of a given active ingredient in a solvent is prepared by initially combining the active ingredient (0.8 g) and solvent (1.5 mL) in a vial and stirring vigorously for at least 24 hours. If a homogeneous solution is obtained, additional active ingredient is added until a significant amount of solid remains out of solution. The mixtures (˜0.25 mL) are then filtered with a PTFE syringe filter (0.45 μm) into an NMR tube that contained C6D6 (0.5 mL). The NMR tubes are capped and analyzed on Varian 400 NMR spectrometer equipped with an auto sampler. Proton NMR spectra are referenced to the residual proton peak in the deuterated solvent. Spectra used for quantitation are collected with a 180 second delay between pulses. Spectra are processed in MestReNova (version 11.0.4-18998) by baseline (Bernstein Polynomials) and phase correcting each spectrum followed by integration of all well-resolved solvent and active resonances. Active ingredient weight percentages are estimated by the following formula:
(§2) [formula] When possible, several well-resolved peaks are used for both solvent and active ingredient, and averaged to provide an estimation of variability in the measurement. Method B: Solubility Determination by Visual Evaluation

Series [2] can be described thus: Method B: solubility of active ingredient in solvent by visual evaluation of a concentration ladder. The following applies: Method B (visual, 24 hours, 21° C.); for Active Ingredient Solubility: 2,4-D Acid: 2,4-dichlorophenoxyacetic acid dissolved in the named solvent; for Active Ingredient Solubility: MCPA: 2-methyl-4-chlorophenoxyacetic acid dissolved in the named solvent; for Active Ingredient Solubility: NBPT: N-(n-butyl)thiophosphoric triamide dissolved in the named solvent; for Active Ingredient Solubility: Bifenthrin: bifenthrin dissolved in the named solvent; for Active Ingredient Solubility: Tebuconazole: tebuconazole dissolved in the named solvent. The protocol: as §1, §2
Four-milliliter (mL) vials are charged with active ingredient (10 to 50 wt %), a stir bar, and solvent (90 to 50 wt %). The vials are capped and taped to seal. The vials are secured in a vial rack and shaken on a laboratory shaker for 24 hours at ambient lab temperature of 21° C. and 51% humidity. After 24 hours each sample set is evaluated for solubility of solid.

A short description of series [3]: Solubility of water in Ether Ketone Solvent (dropwise addition, weighing). The following applies: water in dried solvent; lab temperature 30° C. The method, then: (§3) The solubilities of water in certain of the Ether Ketone Solvents are also evaluated. A vial is charged with 5 grams of the specified solvent, and 3 Å activated molecular sieves (˜300 mg) are added. The vial is capped and the solvent left to dry for several days. The mixtures are filtered using a 0.2 μm syringe filter into a tared 20 mL vial and the weights are noted. Water is then added using a 10 μL syringe until the mixture appeared to have water droplets on the bottom of the vial. The mixture is weighed again and the weight percent solubility of water in the Ether Ketone solvent is calculated. The temperature in the lab is 30° C. at the time of the water solubility measurements.

Series [4] is described as follows: Solubility of Ether Ketone Solvent in water (dropwise addition, weighing). The following applies: lab temperature 30° C. The protocol:
The solubilities of certain of the Ether Ketone Solvents in water are determined by adding water (˜10 to 50 grams) to a tared vial equipped with a stir bar. The weights of water are noted. The specified solvent is added dropwise using a 10 μL syringe until the mixture appeared to have solvent droplets suspended in the water. The mixture is weighed again and the weight percent solubility of the Ether Ketone Solvent in water is calculated.
as §3

`CC(=O)c1ccccc1` [Acetophenone]: in series [1], the “Active Ingredient Solubility: Dicamba Acid” value was found to be 49.8 wt % and the “Active Ingredient Solubility: Nitrapyrin” value was 55.4 wt %. In addition, in series [2], the “Active Ingredient Solubility: 2,4-D Acid” value is below 30 wt %, the “Active Ingredient Solubility: MCPA” value was below 30 wt %, the “Active Ingredient Solubility: NBPT” value is listed as below 30 wt % and the “Active Ingredient Solubility: Bifenthrin” value is on record as below 50 wt %. Further, the “Active Ingredient Solubility: Tebuconazole” value in series [2] is listed as below 30 wt %.
For the compound `CCCCOCC(=O)CC` [BnB Ketone, 1-Butoxy-2-butanone], in series [1], the “Active Ingredient Solubility: 2,4-D Acid” value is listed as 15.6 wt %, the “Active Ingredient Solubility: MCPA” value turned out to be 21.6 wt %, the “Active Ingredient Solubility: NBPT” value is reported as 21.0 wt % and the “Active Ingredient Solubility: Bifenthrin” value came to 42.6 wt %. In series [1], the “Active Ingredient Solubility: Dicamba Acid” value worked out at 48.9 wt %, the “Active Ingredient Solubility: Nitrapyrin” value came out at 55.0 wt % and the “Active Ingredient Solubility: Tebuconazole” value was 16.9 wt %. In addition, in series [3], the “Solubility Water In” value came to 0.11 wt %. Besides, the “Solubility In Water” value in series [4] amounted to 0.43 wt %.
For the compound `CCCCCCOCC(=O)CC` [BnH Ketone, 1-Hexyloxy-2-butanone], in series [1], the “Active Ingredient Solubility: 2,4-D Acid” value came to 12.8 wt %, the “Active Ingredient Solubility: MCPA” value is reported as 17.5 wt %, the “Active Ingredient Solubility: NBPT” value came out at 13.6 wt % and the “Active Ingredient Solubility: Bifenthrin” value is reported as 37.3 wt %. Besides, in series [1], the “Active Ingredient Solubility: Dicamba Acid” value is reported as 42.5 wt %, the “Active Ingredient Solubility: Nitrapyrin” value turned out to be 46.2 wt % and the “Active Ingredient Solubility: Tebuconazole” value came to 13.5 wt %. Also, in series [3], the “Solubility Water In” value is listed as 0.02 wt %. In addition, in series [4], the “Solubility In Water” value was found to be 0.22 wt %.
For the compound `CCCCCCCCOCC(=O)CC` [BnO Ketone, 1-Octyloxy-2-butanone], in series [1], the “Active Ingredient Solubility: 2,4-D Acid” value came out at 10.2 wt %, the “Active Ingredient Solubility: MCPA” value turned out to be 15.3 wt %, the “Active Ingredient Solubility: NBPT” value was 10.0 wt % and the “Active Ingredient Solubility: Bifenthrin” value was 33.9 wt %. In series [1], the “Active Ingredient Solubility: Dicamba Acid” value came out at 36.5 wt %, the “Active Ingredient Solubility: Nitrapyrin” value was 41.6 wt % and the “Active Ingredient Solubility: Tebuconazole” value is reported as 12.0 wt %.
As to `O=C1CCCCC1` [Cyclohexanone], in series [1], the “Active Ingredient Solubility: Dicamba Acid” value is recorded as 62.4 wt % and the “Active Ingredient Solubility: Nitrapyrin” value turned out to be 65.2 wt %. Besides, in series [2], the “Active Ingredient Solubility: 2,4-D Acid” value is given as below 40 wt %, the “Active Ingredient Solubility: MCPA” value was below 50 wt %, the “Active Ingredient Solubility: NBPT” value is below 50 wt % and the “Active Ingredient Solubility: Bifenthrin” value is “Sol. at 50 wt %”. The “Active Ingredient Solubility: Tebuconazole” value in series [2] is below 50 wt %.
For `CCCCOCC(CC)OCC(=O)CC` (stereo not drawn) [DBnB Ketone, 1-((1-Butoxy-2-butanyl)oxy)-2-butanone], in series [1], the “Active Ingredient Solubility: 2,4-D Acid” value stood at 13.2 wt %, the “Active Ingredient Solubility: MCPA” value was found to be 17.1 wt %, the “Active Ingredient Solubility: NBPT” value is listed as 15.7 wt % and the “Active Ingredient Solubility: Bifenthrin” value is listed as 34.7 wt %. In series [1], the “Active Ingredient Solubility: Dicamba Acid” value was found to be 45.6 wt %, the “Active Ingredient Solubility: Nitrapyrin” value is reported as 42.6 wt % and the “Active Ingredient Solubility: Tebuconazole” value worked out at 10.5 wt %.
`CCCCCCOCC(CC)OCC(=O)CC` (stereo not drawn) [DBnH Ketone, 1-((1-(Hexyloxy)-2-butanyl)oxy)-2-butanone]: in series [1], the “Active Ingredient Solubility: 2,4-D Acid” value is 10.9 wt %, the “Active Ingredient Solubility: MCPA” value was 17.2 wt %, the “Active Ingredient Solubility: NBPT” value is listed as 10.5 wt % and the “Active Ingredient Solubility: Bifenthrin” value worked out at 33.8 wt %. For the same compound, in series [1], the “Active Ingredient Solubility: Dicamba Acid” value worked out at 42.5 wt %, the “Active Ingredient Solubility: Nitrapyrin” value was determined as 39.8 wt % and the “Active Ingredient Solubility: Tebuconazole” value is recorded as 11.2 wt %.
With `CCCCOCC(C)OCC(C)=O` (stereo not drawn) [DPnB Ketone, 1-((1-(Butoxy)-2-propanyl)oxy)-2-propanone], in series [1], the “Active Ingredient Solubility: 2,4-D Acid” value is reported as 18.3 wt %, the “Active Ingredient Solubility: MCPA” value is 23.7 wt %, the “Active Ingredient Solubility: NBPT” value is listed as 25.5 wt % and the “Active Ingredient Solubility: Bifenthrin” value was determined as 33.4 wt %. Besides, in series [1], the “Active Ingredient Solubility: Dicamba Acid” value came out at 52.7 wt %, the “Active Ingredient Solubility: Nitrapyrin” value stood at 45.4 wt % and the “Active Ingredient Solubility: Tebuconazole” value stood at 15.0 wt %. Further, the “Solubility Water In” value in series [3] is reported as 0.03 wt %. Further, in series [4], the “Solubility In Water” value stood at 0.20 wt %.
In the case of `CCCCCCOCC(C)OCC(C)=O` (stereo not drawn) [DPnH Ketone, 1-((1-(Hexyloxy)-2-propanyl)oxy)-2-propanone], in series [1], the “Active Ingredient Solubility: 2,4-D Acid” value is 16.4 wt %, the “Active Ingredient Solubility: MCPA” value came out at 22.1 wt %, the “Active Ingredient Solubility: NBPT” value stood at 25.3 wt % and the “Active Ingredient Solubility: Bifenthrin” value worked out at 35.5 wt %. In series [1], the “Active Ingredient Solubility: Dicamba Acid” value is given as 48.4 wt %, the “Active Ingredient Solubility: Nitrapyrin” value worked out at 39.0 wt % and the “Active Ingredient Solubility: Tebuconazole” value is 12.5 wt %. Also, the “Solubility Water In” value in series [3] is recorded as 0.03 wt %. Moreover, in series [4], the “Solubility In Water” value is listed as 0.22 wt %.
For `CCCCCOCC(C)OCC(C)=O` (stereo not drawn) [DPnPent Ketone, 1-((1-(Pentyloxy)-2-propanyl)oxy)-2-propanone], in series [1], the “Active Ingredient Solubility: 2,4-D Acid” value amounted to 15.0 wt %, the “Active Ingredient Solubility: MCPA” value stood at 22.0 wt %, the “Active Ingredient Solubility: NBPT” value turned out to be 24.4 wt % and the “Active Ingredient Solubility: Bifenthrin” value was determined as 31.8 wt %. Moreover, in series [1], the “Active Ingredient Solubility: Dicamba Acid” value amounted to 48.7 wt %, the “Active Ingredient Solubility: Nitrapyrin” value is reported as 41.8 wt % and the “Active Ingredient Solubility: Tebuconazole” value is on record as 12.0 wt %.
In the case of `CCCCOCC(C)=O` [PnB Ketone, 1-Butoxy-2-propanone], in series [1], the “Active Ingredient Solubility: 2,4-D Acid” value worked out at 20.2 wt %, the “Active Ingredient Solubility: MCPA” value worked out at 26.8 wt %, the “Active Ingredient Solubility: NBPT” value stood at 32.8 wt % and the “Active Ingredient Solubility: Bifenthrin” value turned out to be 43.3 wt %. In addition, in series [1], the “Active Ingredient Solubility: Dicamba Acid” value came to 54.0 wt %, the “Active Ingredient Solubility: Nitrapyrin” value was 53.4 wt % and the “Active Ingredient Solubility: Tebuconazole” value was 25.1 wt %. Besides, the “Solubility Water In” value in series [3] is on record as 0.005 wt %. For the same compound, the “Solubility In Water” value in series [4] worked out at 0.20 wt %.
Regarding `CCCCCCCCOCC(C)=O` [PnO Ketone, 1-Octyloxy-2-propanone], in series [1], the “Active Ingredient Solubility: 2,4-D Acid” value was 12.6 wt %, the “Active Ingredient Solubility: MCPA” value came to 17.1 wt %, the “Active Ingredient Solubility: NBPT” value amounted to 15.9 wt % and the “Active Ingredient Solubility: Bifenthrin” value turned out to be 35.4 wt %. In series [1], the “Active Ingredient Solubility: Dicamba Acid” value worked out at 40.6 wt %, the “Active Ingredient Solubility: Nitrapyrin” value turned out to be 42.9 wt % and the “Active Ingredient Solubility: Tebuconazole” value came to 12.5 wt %.
Turning to `CCCCCOCC(C)=O` [PnPent Ketone, 1-Pentyloxy-2-propanone], in series [1], the “Active Ingredient Solubility: 2,4-D Acid” value was 17.3 wt %, the “Active Ingredient Solubility: MCPA” value came to 22.9 wt %, the “Active Ingredient Solubility: NBPT” value is reported as 24.2 wt % and the “Active Ingredient Solubility: Bifenthrin” value is recorded as 40.2 wt %. In addition, in series [1], the “Active Ingredient Solubility: Dicamba Acid” value came out at 49.1 wt %, the “Active Ingredient Solubility: Nitrapyrin” value was determined as 49.0 wt % and the “Active Ingredient Solubility: Tebuconazole” value is on record as 16.7 wt %.
Consider `CCCCOCC(C)OCC(C)OCC(C)=O` (stereo not drawn) [TPnB Ketone, 1-((1-((1-Butoxy-2-propanyl)oxy)-2-propanyl)oxy)-2-propanone], for which, in series [1], the “Active Ingredient Solubility: 2,4-D Acid” value came out at 16.3 wt %, the “Active Ingredient Solubility: MCPA” value worked out at 22.5 wt %, the “Active Ingredient Solubility: NBPT” value came to 22.1 wt % and the “Active Ingredient Solubility: Bifenthrin” value is given as 13.0 wt %. For the same compound, in series [1], the “Active Ingredient Solubility: Dicamba Acid” value is given as 49.7 wt %, the “Active Ingredient Solubility: Nitrapyrin” value worked out at 37.0 wt % and the “Active Ingredient Solubility: Tebuconazole” value came to 10.8 wt %.
